According to publication PMC8086052 (Japanese Journal of Clinical Oncology, 2021):
Entries after “also recorded” stand apart in the source; their conditions may differ. Where two headings read alike, the source gives them in different places.

Assays:
[1] = cited from earlier work
[2] = Plasma pharmacokinetics of niraparib and M1, cycle 1 days 1 and 21; assay type: in vivo, human; settings: for AUC(0-t) / Cmax: oral; for Cmax / Cmin: geometric mean (SD)
[3] = test system: metastatic or locally advanced solid tumours
[4] = test system: platinum-sensitive recurrent ovarian cancer; settings: cited from earlier work
[5] = cancer patients; cited from earlier work
[6] = test system: Japanese patients with advanced solid tumours; settings: for Tolerability: 200 or 300 mg/day, Japanese patients with advanced solid tumours; for Patients with dose-limiting toxicity (DLT) in cycle 1: cohort 2, 300 mg/day (n = 6)
[7] = test system: non-Japanese patients with advanced solid tumours; settings: phase I studies in USA and Europe; cited from earlier work
[8] = test system: newly diagnosed advanced ovarian cancer; settings: regardless of presence or absence of HRd; cited from earlier work
[9] = Niraparib 200 mg/day (n = 3), Any grade
[10] = Niraparib 200 mg/day (n = 3), Grade 3/4
[11] = Niraparib 300 mg/day (n = 6), Any grade
[12] = Niraparib 300 mg/day (n = 6), Grade 3/4
[13] = cohort 2, 300 mg/day, listed as niraparib
[14] = cohort 2, 300 mg/day, three patients

## NC(=O)c1cccc2cn(-c3ccc([C@@H]4CCCNC4)cc3)nc12 [Niraparib, niraparib]
[1]
  tumour exposure at steady state: high
[2]; 200 and 300 mg/day, after multiple doses
  Dose dependence of mean Cmax and AUC0–24: increased dose-proportionally; also recorded: generally increased in a dose-proportional manner
[2]; human, plasma, 200 mg/day
  AUC(0-t): 4.93 µg·h/mL
[2]; human, plasma, 200 mg/day, plasma, Cycle 1 Day 1, Niraparib 200 mg/day (n = 3)
  Cmax: 0.443 µg/mL
[2]; human, plasma, 200 mg/day, plasma, Cycle 1 Day 21, Niraparib 200 mg/day (n = 3)
  Cmax: 0.729 µg/mL
[2]; human, plasma, 300 mg/day
  AUC(0-t): 6.27 µg·h/mL
[2]; human, plasma, 300 mg/day, plasma, Cycle 1 Day 1, Niraparib 300 mg/day (n = 6)
  Cmax: 0.53 µg/mL
[2]; human, plasma, 300 mg/day, plasma, Cycle 1 Day 21, Niraparib 300 mg/day (n = 4)
  Cmax: 1.17 µg/mL
[2]; human, plasma, po, median tmax, single (cycle 1, day 1) and multiple (cycle 1, day 21) oral administration of niraparib 200 and 300 mg/day
  Tmax: 3 to 4 h
[2]; plasma, Cycle 1 Day 21, Niraparib 200 mg/day (n = 3)
  Cmin: 405.8 (267.8) ng/ml
[2]; plasma, Cycle 1 Day 21, Niraparib 300 mg/day (n = 4)
  Cmin: 592.3 (138.2) ng/ml
[3]; both cohorts
  Patients with PD (progressive disease): four
[3]; both in cohort 2 (300 mg/day), lung cancer and bile duct cancer
  Patients with partial response: Two patients
[3]; cohort 1, 200 mg/day
  Patients with PD (progressive disease): All patients
[4]; maintenance treatment, regardless of germline BRCA mutation status
  progression-free survival (PFS) compared with placebo: significantly prolonged
[4]; starting dosage 300 mg once daily
  Patients requiring a dosage reduction to 200 mg once daily: ~ 70%
[5]
  bioavailability after oral administration: ~ 73%
[6]; 300 mg/day cohort
  Time to recovery from grade 4 thrombocytopenia / platelet count decreased: ~ 10 days
[6]; 300 mg/day cohort, day 14 of cycle 1 and day 8 of cycle 2
  Patients with grade 4 thrombocytopenia or platelet count decreased: two patients
[6]; 200 and 300 mg/day
  AEs of special interest (myelodysplastic syndrome, acute myeloid leukaemia, hypertensive crisis): no AEs of special interest
[6]
  Tolerability: tolerable
  Patients with dose-limiting toxicity (DLT) in cycle 1: 16.7%
[6]; listed as niraparib
  Tolerability: generally safe and tolerable
[6]; [9]
  Patients with events: ALT increased: 0 n (%)
  Patients with events: AST increased: 0 n (%)
  Patients with events: Anaemia: 0 n (%)
  Patients with events: Any TEAE: 3 (100.0) n (%)
  Patients with events: Blood ALP increased: 1 (33.3) n (%)
  Patients with events: Blood creatinine increased: 1 (33.3) n (%)
  Patients with events: Chest pain: 0 n (%)
  Patients with events: Constipation: 1 (33.3) n (%)
  Patients with events: Decreased appetite: 2 (66.7) n (%)
  Patients with events: Diabetes mellitus: 0 n (%)
  Patients with events: Diarrhoea: 0 n (%)
  Patients with events: Fatigue: 2 (66.7) n (%)
  Patients with events: Febrile neutropenia: 0 n (%)
  Patients with events: GGT increased: 0 n (%)
  Patients with events: Hypertension: 0 n (%)
  Patients with events: Malaise: 1 (33.3) n (%)
  Patients with events: Nausea: 1 (33.3) n (%)
  Patients with events: Platelet count decreased: 1 (33.3) n (%)
  Patients with events: Pyelonephritis: 0 n (%)
  Patients with events: Thrombocytopenia: 0 n (%)
  Patients with events: Vomiting: 2 (66.7) n (%)
  Patients with events: White blood cell count decreased: 1 (33.3) n (%)
[6]; [10]
  Patients with events: ALT increased: 0 n (%)
  Patients with events: AST increased: 0 n (%)
  Patients with events: Anaemia: 0 n (%)
  Patients with events: Any TEAE: 1 (33.3) n (%)
  Patients with events: Blood ALP increased: 1 (33.3) n (%)
  Patients with events: Blood creatinine increased: 0 n (%)
  Patients with events: Chest pain: 0 n (%)
  Patients with events: Constipation: 0 n (%)
  Patients with events: Decreased appetite: 0 n (%)
  Patients with events: Diabetes mellitus: 0 n (%)
  Patients with events: Diarrhoea: 0 n (%)
  Patients with events: Fatigue: 0 n (%)
  Patients with events: Febrile neutropenia: 0 n (%)
  Patients with events: GGT increased: 0 n (%)
  Patients with events: Hypertension: 0 n (%)
  Patients with events: Malaise: 0 n (%)
  Patients with events: Nausea: 0 n (%)
  Patients with events: Platelet count decreased: 0 n (%)
  Patients with events: Pyelonephritis: 0 n (%)
  Patients with events: Thrombocytopenia: 0 n (%)
  Patients with events: Vomiting: 0 n (%)
  Patients with events: White blood cell count decreased: 1 (33.3) n (%)
[6]; [11]
  Patients with events: ALT increased: 3 (50.0) n (%)
  Patients with events: AST increased: 5 (83.3) n (%)
  Patients with events: Anaemia: 3 (50.0) n (%)
  Patients with events: Any TEAE: 6 (100.0) n (%)
  Patients with events: Blood ALP increased: 4 (66.7) n (%)
  Patients with events: Blood creatinine increased: 1 (16.7) n (%)
  Patients with events: Chest pain: 2 (33.3) n (%)
  Patients with events: Constipation: 2 (33.3) n (%)
  Patients with events: Decreased appetite: 2 (33.3) n (%)
  Patients with events: Diabetes mellitus: 1 (16.7) n (%)
  Patients with events: Diarrhoea: 2 (33.3) n (%)
  Patients with events: Fatigue: 1 (16.7) n (%)
  Patients with events: Febrile neutropenia: 1 (16.7) n (%)
  Patients with events: GGT increased: 3 (50.0) n (%)
  Patients with events: Hypertension: 2 (33.3) n (%)
  Patients with events: Malaise: 2 (33.3) n (%)
  Patients with events: Nausea: 4 (66.7) n (%)
  Patients with events: Platelet count decreased: 5 (83.3) n (%)
  Patients with events: Pyelonephritis: 1 (16.7) n (%)
  Patients with events: Thrombocytopenia: 1 (16.7) n (%)
  Patients with events: Vomiting: 2 (33.3) n (%)
  Patients with events: White blood cell count decreased: 1 (16.7) n (%)
[6]; [12]
  Patients with events: ALT increased: 1 (16.7) n (%)
  Patients with events: AST increased: 0 n (%)
  Patients with events: Anaemia: 1 (16.7) n (%)
  Patients with events: Any TEAE: 4 (66.7) n (%)
  Patients with events: Blood ALP increased: 1 (16.7) n (%)
  Patients with events: Blood creatinine increased: 0 n (%)
  Patients with events: Chest pain: 0 n (%)
  Patients with events: Constipation: 0 n (%)
  Patients with events: Decreased appetite: 0 n (%)
  Patients with events: Diabetes mellitus: 1 (16.7) n (%)
  Patients with events: Diarrhoea: 0 n (%)
  Patients with events: Fatigue: 0 n (%)
  Patients with events: Febrile neutropenia: 1 (16.7) n (%)
  Patients with events: GGT increased: 2 (33.3) n (%)
  Patients with events: Hypertension: 0 n (%)
  Patients with events: Malaise: 0 n (%)
  Patients with events: Nausea: 0 n (%)
  Patients with events: Platelet count decreased: 1 (16.7) n (%)
  Patients with events: Pyelonephritis: 1 (16.7) n (%)
  Patients with events: Thrombocytopenia: 1 (16.7) n (%)
  Patients with events: Vomiting: 0 n (%)
  Patients with events: White blood cell count decreased: 0 n (%)
[6]; cohort 1, 200 mg/day
  Patients who discontinued treatment due to a TEAE: no patient
  Treatment-related TEAE: decreased appetite: 2 n
[6]; cohort 1, 200 mg/day, blood alkaline phosphatase increased, white blood cell count decreased
  Patients with grade 3 treatment-related AEs: one patient
[6]; cohort 1, 200 mg/day, listed as niraparib
  Treatment-related TEAE: decreased appetite: 66.7%
[6]; cohort 2, 300 mg/day
  Patients with grade ≥ 3 treatment-related AEs: five patients
  Patients with treatment-related grade 3 alanine aminotransferase increased: one patient
  Patients with treatment-related grade 3 anaemia: two patients
  Patients with treatment-related grade 3 febrile neutropenia: one patient
  Patients with treatment-related grade 3 gamma-glutamyl transferase increased: one patient
  Total number of grade ≥ 3 treatment-related AEs: 11
  Treatment-related TEAE: aspartate aminotransferase increased: 5 n
  Treatment-related TEAE: platelet count decreased: 5 n
[6]; grade 4 platelet count decreased
  Patients with dose-limiting toxicity (DLT) in cycle 1: one patient
[6]; [13]
  Treatment-related TEAE: aspartate aminotransferase increased: 83.3%
  Treatment-related TEAE: platelet count decreased: 83.3%
[6]; cohort 2, 300 mg/day, malaise and gamma-glutamyl transferase increased
  Patients who discontinued treatment due to a TEAE: Two patients
[6]; cohort 2, 300 mg/day, pyelonephritis, considered unrelated to niraparib
  Patients with a serious AE: One patient
[6]; [14]
  Treatment-related TEAE: alkaline phosphatase increased: 50.0%
  Treatment-related TEAE: anaemia: 50.0%
  Treatment-related TEAE: nausea: 50.0%
[7]
  maximum tolerated dose (MTD): 300 mg once daily
[8]
  progression-free survival (PFS) compared with placebo: significantly prolonged
